Laboratory results from patent US20110152313A1 (MACQUARIE UNIVERSITY, priority 2008, published 2011).

How the values were obtained:
Assay in all cases: kinase binding screen (kinase-tagged T7 phage, qPCR), % Ctrl
PIK3C2G = biological target: T1, PIK3C2G (Homo sapiens, UniProt O75747)
T1 sequence (O75747 1-1486): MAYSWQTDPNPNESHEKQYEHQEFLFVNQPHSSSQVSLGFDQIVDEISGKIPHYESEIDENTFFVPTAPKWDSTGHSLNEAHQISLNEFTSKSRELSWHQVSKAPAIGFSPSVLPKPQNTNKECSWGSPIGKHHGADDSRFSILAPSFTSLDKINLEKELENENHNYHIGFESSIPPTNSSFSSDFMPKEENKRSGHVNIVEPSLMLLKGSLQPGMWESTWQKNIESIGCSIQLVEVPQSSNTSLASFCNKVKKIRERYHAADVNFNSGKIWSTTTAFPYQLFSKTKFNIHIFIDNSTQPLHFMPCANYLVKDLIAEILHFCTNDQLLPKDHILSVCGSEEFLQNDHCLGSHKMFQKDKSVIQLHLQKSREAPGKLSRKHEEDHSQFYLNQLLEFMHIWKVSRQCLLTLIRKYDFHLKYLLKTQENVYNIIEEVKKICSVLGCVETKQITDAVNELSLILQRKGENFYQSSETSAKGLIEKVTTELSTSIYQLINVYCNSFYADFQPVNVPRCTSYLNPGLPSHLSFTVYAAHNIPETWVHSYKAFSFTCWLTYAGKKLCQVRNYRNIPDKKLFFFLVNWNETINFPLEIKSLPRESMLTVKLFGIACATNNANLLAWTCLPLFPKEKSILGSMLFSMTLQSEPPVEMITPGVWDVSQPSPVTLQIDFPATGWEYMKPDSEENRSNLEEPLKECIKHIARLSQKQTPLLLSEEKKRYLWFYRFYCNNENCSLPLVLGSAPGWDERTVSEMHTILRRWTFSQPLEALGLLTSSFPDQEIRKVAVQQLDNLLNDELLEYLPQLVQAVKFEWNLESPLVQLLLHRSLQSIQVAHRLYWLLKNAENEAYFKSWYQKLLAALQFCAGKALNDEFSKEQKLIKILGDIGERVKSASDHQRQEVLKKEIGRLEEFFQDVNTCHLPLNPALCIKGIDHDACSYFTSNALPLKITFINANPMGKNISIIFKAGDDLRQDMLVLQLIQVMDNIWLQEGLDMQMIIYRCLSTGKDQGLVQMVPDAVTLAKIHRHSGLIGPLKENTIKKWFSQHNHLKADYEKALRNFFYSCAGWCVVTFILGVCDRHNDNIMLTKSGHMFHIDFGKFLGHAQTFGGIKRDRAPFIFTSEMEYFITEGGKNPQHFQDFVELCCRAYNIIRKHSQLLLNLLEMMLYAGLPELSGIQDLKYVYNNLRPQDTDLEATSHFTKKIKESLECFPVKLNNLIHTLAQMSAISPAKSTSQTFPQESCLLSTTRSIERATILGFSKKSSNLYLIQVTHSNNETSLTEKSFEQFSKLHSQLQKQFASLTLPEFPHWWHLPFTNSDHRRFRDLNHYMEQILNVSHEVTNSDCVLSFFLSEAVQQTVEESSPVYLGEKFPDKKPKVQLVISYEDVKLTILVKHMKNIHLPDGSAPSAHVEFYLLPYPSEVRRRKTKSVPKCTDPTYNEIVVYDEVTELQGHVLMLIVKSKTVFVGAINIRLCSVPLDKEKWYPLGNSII
Procedure, shortened: (§1)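 Steps: grow T7 phage displaying kinase in BL21-derived E. coli; clarify lysate; combine with ligand-liganded, blocked beads and compound (single concentration, diluted from 40× DMSO stock); elute; quantify kinase by qPCR.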

PIM2 = PIM2 (Homo sapiens, UniProt Q9P1W9)
Procedure, shortened: as §1

CAMKK2 = CAMKK2 (Homo sapiens, UniProt Q96RR4)
Procedure, shortened: as §1

CAMK2D = CAMK2D (Homo sapiens, UniProt Q13557)
Procedure, shortened: as §1

[1] = biological target: RPS6KA1(Kin.Dom.2-C-terminal) (Homo sapiens, UniProt Q15418)
Procedure, shortened: as §1

DYRK2 = biological target: T2, DYRK2 (Homo sapiens, UniProt Q92630)
T2 sequence (Q92630 1-601): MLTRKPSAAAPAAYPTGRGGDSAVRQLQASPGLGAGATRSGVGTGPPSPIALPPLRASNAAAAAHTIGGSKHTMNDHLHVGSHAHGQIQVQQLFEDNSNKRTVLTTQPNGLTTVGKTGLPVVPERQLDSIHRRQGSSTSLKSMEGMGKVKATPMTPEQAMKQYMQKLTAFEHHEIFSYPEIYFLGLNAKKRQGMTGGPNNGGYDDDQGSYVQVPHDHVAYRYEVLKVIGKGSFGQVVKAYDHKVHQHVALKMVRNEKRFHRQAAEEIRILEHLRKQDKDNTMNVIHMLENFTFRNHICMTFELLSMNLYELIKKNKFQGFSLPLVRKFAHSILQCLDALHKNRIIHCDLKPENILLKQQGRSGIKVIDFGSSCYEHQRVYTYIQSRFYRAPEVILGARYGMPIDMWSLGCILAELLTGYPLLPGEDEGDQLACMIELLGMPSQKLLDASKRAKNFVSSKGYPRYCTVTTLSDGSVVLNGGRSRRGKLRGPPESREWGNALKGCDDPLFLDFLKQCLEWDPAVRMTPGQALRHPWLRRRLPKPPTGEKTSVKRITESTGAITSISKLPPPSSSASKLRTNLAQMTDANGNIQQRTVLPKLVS
Procedure, shortened: as §1

AAK1 = AAK1 (Homo sapiens, UniProt Q2M2I8)
Procedure, shortened: as §1

CAMKK2, sequence (Q96RR4 whole entry): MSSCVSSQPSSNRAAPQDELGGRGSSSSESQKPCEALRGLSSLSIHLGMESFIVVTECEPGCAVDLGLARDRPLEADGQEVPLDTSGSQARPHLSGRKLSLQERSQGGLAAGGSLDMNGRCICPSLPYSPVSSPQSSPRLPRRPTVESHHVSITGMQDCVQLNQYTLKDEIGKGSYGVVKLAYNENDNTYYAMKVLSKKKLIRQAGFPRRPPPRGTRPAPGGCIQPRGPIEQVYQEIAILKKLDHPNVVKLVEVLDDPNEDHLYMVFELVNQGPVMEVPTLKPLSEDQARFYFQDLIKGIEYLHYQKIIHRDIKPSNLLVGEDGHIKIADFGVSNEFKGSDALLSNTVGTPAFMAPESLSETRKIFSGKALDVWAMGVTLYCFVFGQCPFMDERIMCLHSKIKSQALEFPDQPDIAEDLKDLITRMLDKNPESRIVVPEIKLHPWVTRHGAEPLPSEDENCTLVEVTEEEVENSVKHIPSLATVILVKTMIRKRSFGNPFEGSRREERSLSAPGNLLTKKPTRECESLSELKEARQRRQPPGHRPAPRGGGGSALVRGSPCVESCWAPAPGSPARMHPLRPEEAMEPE
AAK1, sequence (Q2M2I8 whole entry): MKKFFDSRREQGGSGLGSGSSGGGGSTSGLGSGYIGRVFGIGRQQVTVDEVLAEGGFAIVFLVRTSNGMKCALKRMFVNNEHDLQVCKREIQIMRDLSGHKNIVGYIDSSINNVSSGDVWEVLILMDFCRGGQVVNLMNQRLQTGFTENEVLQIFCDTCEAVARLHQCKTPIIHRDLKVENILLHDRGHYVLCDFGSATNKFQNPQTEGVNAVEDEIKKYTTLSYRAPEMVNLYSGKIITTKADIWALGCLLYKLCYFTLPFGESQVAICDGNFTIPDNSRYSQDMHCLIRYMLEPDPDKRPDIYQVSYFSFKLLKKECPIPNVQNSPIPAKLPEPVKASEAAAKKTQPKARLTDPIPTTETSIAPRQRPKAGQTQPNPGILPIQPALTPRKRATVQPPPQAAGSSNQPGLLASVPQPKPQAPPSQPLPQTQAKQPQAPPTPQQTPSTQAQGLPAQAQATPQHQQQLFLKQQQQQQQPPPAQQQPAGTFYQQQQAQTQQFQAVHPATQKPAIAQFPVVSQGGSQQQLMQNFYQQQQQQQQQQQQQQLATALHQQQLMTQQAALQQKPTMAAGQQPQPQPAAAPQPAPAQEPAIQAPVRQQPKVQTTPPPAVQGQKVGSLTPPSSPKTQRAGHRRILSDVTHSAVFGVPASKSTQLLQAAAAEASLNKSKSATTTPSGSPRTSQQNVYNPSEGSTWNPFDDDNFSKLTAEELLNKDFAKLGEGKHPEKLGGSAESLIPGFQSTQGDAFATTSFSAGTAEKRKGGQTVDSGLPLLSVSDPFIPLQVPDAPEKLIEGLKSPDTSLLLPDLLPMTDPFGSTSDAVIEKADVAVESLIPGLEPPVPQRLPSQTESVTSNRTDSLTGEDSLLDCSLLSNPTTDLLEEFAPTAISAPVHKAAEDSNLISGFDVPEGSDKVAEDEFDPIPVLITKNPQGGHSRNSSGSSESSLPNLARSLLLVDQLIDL
CAMK2D, sequence (Q13557 whole entry): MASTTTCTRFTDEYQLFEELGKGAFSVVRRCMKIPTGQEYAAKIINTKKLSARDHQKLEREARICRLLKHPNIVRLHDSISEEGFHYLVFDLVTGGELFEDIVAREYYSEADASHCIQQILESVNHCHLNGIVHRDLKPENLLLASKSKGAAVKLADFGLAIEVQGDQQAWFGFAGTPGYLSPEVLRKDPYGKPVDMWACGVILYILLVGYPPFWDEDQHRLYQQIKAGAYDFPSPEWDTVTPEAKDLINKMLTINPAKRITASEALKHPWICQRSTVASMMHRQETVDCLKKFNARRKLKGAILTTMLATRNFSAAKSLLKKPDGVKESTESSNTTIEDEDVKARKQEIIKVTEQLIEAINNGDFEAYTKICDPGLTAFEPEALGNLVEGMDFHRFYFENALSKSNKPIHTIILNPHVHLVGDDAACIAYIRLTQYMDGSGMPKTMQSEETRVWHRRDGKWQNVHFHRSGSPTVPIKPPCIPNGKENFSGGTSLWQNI
PIM2, sequence (Q9P1W9 whole entry, species assumed): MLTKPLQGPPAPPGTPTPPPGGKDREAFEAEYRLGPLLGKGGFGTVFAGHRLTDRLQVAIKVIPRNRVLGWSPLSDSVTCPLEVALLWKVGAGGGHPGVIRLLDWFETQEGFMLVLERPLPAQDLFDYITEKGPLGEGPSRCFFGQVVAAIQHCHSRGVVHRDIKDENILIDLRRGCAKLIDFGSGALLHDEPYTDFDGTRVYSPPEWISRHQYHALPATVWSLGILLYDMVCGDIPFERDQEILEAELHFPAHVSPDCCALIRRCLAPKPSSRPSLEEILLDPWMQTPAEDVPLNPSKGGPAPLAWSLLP
RPS6KA1(Kin.Dom.2-C-terminal), sequence (Q15418 418-675 limits assumed, species assumed): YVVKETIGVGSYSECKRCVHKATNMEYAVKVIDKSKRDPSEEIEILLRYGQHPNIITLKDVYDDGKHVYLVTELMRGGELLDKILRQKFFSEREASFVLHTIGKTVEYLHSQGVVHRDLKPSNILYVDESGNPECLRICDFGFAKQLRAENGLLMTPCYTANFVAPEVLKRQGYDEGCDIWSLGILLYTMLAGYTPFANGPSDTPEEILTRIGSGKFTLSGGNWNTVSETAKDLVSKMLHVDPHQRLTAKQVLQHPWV

Row | remaining activity at 10 µM (PIK3C2G; 10 μM) [%] | remaining activity at 10 µM (PIM2; 10 μM) [%] | remaining activity at 10 µM (CAMKK2; 10 μM) [%] | remaining activity at 10 µM (CAMK2D; 10 μM) [%] | remaining activity at 10 µM ([1]; 10 μM) [%] | remaining activity at 10 µM (DYRK2; 10 μM) [%] | remaining activity at 10 µM (AAK1; 10 μM) [%] | SMILES | remaining activity at 1 µM (PIK3C2G) [%] | remaining activity at 1 µM (PIM2) [%] | remaining activity at 1 µM (CAMKK2) [%] | remaining activity at 1 µM (CAMK2D) [%] | remaining activity at 1 µM [1] [%] | remaining activity at 1 µM (DYRK2) [%] | remaining activity at 1 µM (AAK1) [%]
1 | 80 | 21 | 83 | 82 | 22 | 4.4 | 83 | Nc1nc2c(-c3cc(Br)c(Br)[nH]3)nccc2[nH]1 [Ageladine A, ageladine A, reference compound] | 99 | 56 | 90 | 100 | 20 | 35 | 90
2 |  |  |  |  |  |  |  | Nc1nc2c(-c3ccccn3)nccc2[nH]1 [drawing 35, 4-(pyrid-2-yl)-1H-imidazo[4,5-c]pyridin-2-amine] | 66 | 100 | 35 | 41 | 33 | 41 | 27
3 |  |  |  |  |  |  |  | Nc1nc2c(-c3cnc4ccccc4c3)nccc2[nH]1 [drawing 36, 4-(quinolin-3-yl)-1H-imidazo[4,5-c]pyridin-2-amine] | 30 | 100 | 100 | 100 | 92 | 56 | 83
